Results published in patent US20260262643A1, “HERBICIDAL BENZOXAZINES” (FMC CORPORATION, priority 2022, published 2026).

Columns and labels:
green foxtail [1] = assay: Test C postemergence; type: in vivo, Setaria viridis; conditions: 10 days, 0 to 100 scale (0 no effect, 100 complete control)
In short: (§1)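 Visual injury ratings on a 0–100 scale (100 = complete control) were made against untreated controls 10 days after treatment in the greenhouse. Compounds, formulated with surfactant in non-phytotoxic solvent, were sprayed on soil preemergence or onto one- to two-leaf plants 2–10 cm tall postemergence.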

kochia [2] = assay: Test C postemergence; type: in vivo, Bassia scoparia; conditions: 10 days, 0 to 100 scale (0 no effect, 100 complete control)
In short: as §1

sedge, umbrella = assay: Test D flooded paddy test; type: in vivo, Cyperus difformis; conditions: 250 g ai/ha, applied to paddy water, visual rating after 13 to 14 days, scale 0 to 100 (0 no effect, 100 complete control)
In short: (§2)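 Seedlings reached the 2-leaf stage, then pots were flooded to 3 cm over the soil surface. Compound was applied into the water, depth was maintained, and plants stayed in the greenhouse 13 to 14 days before visual scoring (0–100) relative to controls.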

ragweed [3] = assay: Test C preemergence; type: in vivo, Ambrosia artemisiifolia
In short: as §1

wheat [4] = assay: Test C postemergence; type: in vivo, Triticum aestivum; conditions: 10 days, 0 to 100 scale (0 no effect, 100 complete control)
In short: as §1

ducksalad = assay: Test D flooded paddy test; type: in vivo, Heteranthera limosa; conditions: 250 g ai/ha, applied to paddy water, visual rating after 13 to 14 days, scale 0 to 100 (0 no effect, 100 complete control)
In short: as §2

rice = assay: Test D flooded paddy test; type: in vivo, Oryza sativa; conditions: 250 g ai/ha, applied to paddy water, visual rating after 13 to 14 days, scale 0 to 100 (0 no effect, 100 complete control)
In short: as §2

barnyardgrass [5] = assay: Test C postemergence; type: in vivo, Echinochloa crusgalli; conditions: 10 days, 0 to 100 scale (0 no effect, 100 complete control)
In short: as §1

wheat [6] = assay: Test C preemergence; type: in vivo, Triticum aestivum
In short: as §1

blackgrass [7] = assay: Test C postemergence; type: in vivo, Alopecurus myosuroides; conditions: 10 days, 0 to 100 scale (0 no effect, 100 complete control)
In short: as §1

barnyardgrass [8] = assay: Test D flooded paddy test; type: in vivo, Echinochloa crus-galli; conditions: 250 g ai/ha, applied to paddy water, visual rating after 13 to 14 days, scale 0 to 100 (0 no effect, 100 complete control)
In short: as §2

corn [9] = assay: Test C preemergence; type: in vivo, Zea mays
In short: as §1

soybean [10] = assay: Test C preemergence; type: in vivo, Glycine max
In short: as §1

ryegrass, Italian [11] = assay: Test C preemergence; type: in vivo, Lolium multiflorum
In short: as §1

horseweed = assay: Test C postemergence; type: in vivo, Erigeron canadensis; conditions: 10 days, 0 to 100 scale (0 no effect, 100 complete control)
In short: as §1

ryegrass, Italian [12] = assay: Test C postemergence; type: in vivo, Lolium multiflorum; conditions: 10 days, 0 to 100 scale (0 no effect, 100 complete control)
In short: as §1

green foxtail [13] = assay: Test C preemergence; type: in vivo, Setaria viridis
In short: as §1

oat, wild [14] = assay: Test C preemergence; type: in vivo, Avena fatua
In short: as §1

corn [15] = assay: Test C postemergence; type: in vivo, Zea mays; conditions: 10 days, 0 to 100 scale (0 no effect, 100 complete control)
In short: as §1

kochia [16] = assay: Test C preemergence; type: in vivo, Bassia scoparia
In short: as §1

barnyardgrass [17] = assay: Test C preemergence; type: in vivo, Echinochloa crusgalli
In short: as §1

oat, wild [18] = assay: Test C postemergence; type: in vivo, Avena fatua; conditions: 10 days, 0 to 100 scale (0 no effect, 100 complete control)
In short: as §1

soybean [19] = assay: Test C postemergence; type: in vivo, Glycine max; conditions: 10 days, 0 to 100 scale (0 no effect, 100 complete control)
In short: as §1

blackgrass [20] = assay: Test C preemergence; type: in vivo, Alopecurus myosuroides
In short: as §1

pigweed, palmer [21] = assay: Test C preemergence; type: in vivo, Amaranthus palmeri
In short: as §1

ragweed [22] = assay: Test C postemergence; type: in vivo, Ambrosia artemisiifolia; conditions: 10 days, 0 to 100 scale (0 no effect, 100 complete control)
In short: as §1

galium = assay: Test C postemergence; type: in vivo, Galium aparine; conditions: 10 days, 0 to 100 scale (0 no effect, 100 complete control)
In short: as §1

pigweed, palmer [23] = assay: Test C postemergence; type: in vivo, Amaranthus palmeri; conditions: 10 days, 0 to 100 scale (0 no effect, 100 complete control)
In short: as §1

[24] = 500 g ai/ha, preemergence, 0 to 100 scale (0 no effect, 100 complete control)
[25] = Preemergence, 125 g ai/ha, 0 to 100 scale, 0 no effect, 100 complete control

## COC(C)c1ncn(-c2ccc(C)c(C(=O)N3CC(C)Oc4c(Cl)cccc43)c2)n1 (mixture of isomers) [Compound 359]
Green foxtail [1]; 500 g ai/ha, postemergence
  Plant response rating, Foxtail, Green: 80
Green foxtail [1]; Postemergence, 125 g ai/ha
  Plant response rating, Foxtail, Green: 50
Kochia [2]; 500 g ai/ha, postemergence
  Plant response rating, Kochia: 80
Kochia [2]; Postemergence, 125 g ai/ha
  Plant response rating, Kochia: 50
sedge, umbrella
  Plant response rating, Sedge, Umbrella (Flood): 65
Ragweed [3]; [24]
  Ragweed plant response rating: 100
Ragweed [3]; [25]
  Plant response rating, Ragweed: 0
Wheat [4]; 500 g ai/ha, postemergence
  Plant response rating, Wheat: 90
Wheat [4]; Postemergence, 125 g ai/ha
  Plant response rating, Wheat: 30
ducksalad
  Plant response rating, Ducksalad (Flood): 60
rice
  Plant response rating, Rice (Flood): 10
Barnyardgrass [5]; 500 g ai/ha, postemergence
  Plant response rating, Barnyardgrass: 90
Barnyardgrass [5]; Postemergence, 125 g ai/ha
  Plant response rating, Barnyardgrass: 30
Wheat [6]; [24]
  Wheat plant response rating: 80
Wheat [6]; [25]
  Plant response rating, Wheat: 30
Blackgrass [7]; 500 g ai/ha, postemergence
  Plant response rating, Blackgrass: 100
Blackgrass [7]; Postemergence, 125 g ai/ha
  Plant response rating, Blackgrass: 60
Barnyardgrass [8]
  Plant response rating, Barnyardgrass (Flood): 15
Corn [9]; [24]
  Corn plant response rating: 30
Corn [9]; [25]
  Plant response rating, Corn: 20
Soybean [10]; [24]
  Soybean plant response rating: 100
Soybean [10]; [25]
  Plant response rating, Soybean: 80
ryegrass, Italian [11]; [24]
  Ryegrass, Italian plant response rating: 100
ryegrass, Italian [11]; [25]
  Plant response rating, Ryegrass, Italian: 90
horseweed; 500 g ai/ha, postemergence
  Plant response rating, Horseweed: 90
horseweed; Postemergence, 125 g ai/ha
  Plant response rating, Horseweed: 70
ryegrass, Italian [12]; 500 g ai/ha, postemergence
  Plant response rating, Ryegrass, Italian: 100
ryegrass, Italian [12]; Postemergence, 125 g ai/ha
  Plant response rating, Ryegrass, Italian: 90
Green foxtail [13]; [24]
  Foxtail, Green plant response rating: 100
Green foxtail [13]; [25]
  Plant response rating, Foxtail, Green: 100
oat, wild [14]; [24]
  Oat, Wild plant response rating: 90
oat, wild [14]; [25]
  Plant response rating, Oat, Wild: 90
Corn [15]; 500 g ai/ha, postemergence
  Plant response rating, Corn: 80
Corn [15]; Postemergence, 125 g ai/ha
  Plant response rating, Corn: 40
Kochia [16]; [24]
  Kochia plant response rating: 100
Kochia [16]; [25]
  Plant response rating, Kochia: 100
Barnyardgrass [17]; [24]
  Barnyardgrass plant response rating: 100
Barnyardgrass [17]; [25]
  Plant response rating, Barnyardgrass: 100
oat, wild [18]; 500 g ai/ha, postemergence
  Plant response rating, Oat, Wild: 90
oat, wild [18]; Postemergence, 125 g ai/ha
  Plant response rating, Oat, Wild: 60
Soybean [19]; 500 g ai/ha, postemergence
  Plant response rating, Soybean: 100
Soybean [19]; Postemergence, 125 g ai/ha
  Plant response rating, Soybean: 100
Blackgrass [20]; [24]
  Blackgrass plant response rating: 100
Blackgrass [20]; [25]
  Plant response rating, Blackgrass: 80
pigweed, palmer [21]; [24]
  Pigweed, Palmer plant response rating: 100
pigweed, palmer [21]; [25]
  Plant response rating, Pigweed, Palmer: 90
Ragweed [22]; 500 g ai/ha, postemergence
  Plant response rating, Ragweed: 80
Ragweed [22]; Postemergence, 125 g ai/ha
  Plant response rating, Ragweed: 60
galium; 500 g ai/ha, postemergence
  Plant response rating, Galium: 100
galium; Postemergence, 125 g ai/ha
  Plant response rating, Galium: 100
pigweed, palmer [23]; 500 g ai/ha, postemergence
  Plant response rating, Pigweed, Palmer: 100
pigweed, palmer [23]; Postemergence, 125 g ai/ha
  Plant response rating, Pigweed, Palmer: 60
